# Assay results: patent US20120065198A2, “Detection and Treatment of Schizophrenia” (Tokai University Educational System, priority 2007, published 2012)
# System: pentosidine formation
# Assay: Inhibitory activity on pentosidine formation, samples incubated with BSA and arabinose
# Assay type: biochemical
# Details: 5 mM drug; incubated with BSA and arabinose instead of patient plasma
# Method: (§1) Plasma was collected from hemodialysis patients prior to dialysis with the patients' consent, and the plasma was filtered and sterilized. To the plasma (450 μL) was added solutions of TM-2002 in dimethylsulfoxide (50 μL) (final concentrations: 0.8, 2.0, and 5.0 mM), and the mixtures were incubated for 1 week at 37° C. The levels of the pentosidine formation were measured.
# (§2) Pentosidine was measured as follows. To each sample (50 μL) after incubation was added an equal volume of 10% trichloroacetic acid, and the mixture was subsequently centrifuged at 5,000 g for 5 minutes. After the supernatant was removed, the pellet was washed with 5% trichloroacetic acid (300 μL). The pellet was dried under reduced pressure, and subsequently hydrolyzed in a 6N HCl solution (100 μL) under a nitrogen atmosphere for 16 hours at 110° C. To the acid hydrolysate was then added 5N NaOH (100 μL) and 0.5 M phosphate buffer (pH 7.4) (200 μL); the mixture was subsequently filtered through a micropore filter with 0.5 μm pores and diluted with PBS. The concentration of the released pentosidine was measured by reverse-phase HPLC using a fluorescence detector (RF-10A, Shimadzu Corporation) (Miyata, T. et al.; Proc. Natl. Acad. Sci. USA, Vol. 93, p. 2353-2358, 1996). The effluent was monitored at the excitation/emission wavelength of 335/385 nm. Synthetic pentosidine was used as the reference material. The detection limit of pentosidine was 0.1 pmol/mg protein.
# (2) Other edaravone analogues (Compounds (1) or (2)) were investigated for their inhibitory activities on pentosidine formation in the same manner as in Section (1) above, except that the samples were incubated with BSA and arabinose instead of the patient plasma. In the tables, “-” means that the test was not conducted.
row,SMILES,Pentosidine Formation Ratio (%) at 5 mM Drug Concentration [%]
1,"CC1=NN(c2ccccc2)C(=O)C1Sc1nc(-c2ccc(C)cc2)cs1 (stereo not shown) [compound 21, 5-methyl-2-phenyl-4-(4-p-toluyl-thiazol-2-ylsulfanyl)-2,4-dihydro-pyrazole-3-one]",42.07
2,"CCc1ccc(N2N=C(C)/C(=C\c3ccc(O)cc3)C2=O)cc1 [compound 48, 2-(4-ethyl-phenyl)-4-(4-hydroxy-benzylidene)-5-methyl-2,4-dihydro-pyrazol-3-one]",0.02
3,"CC(=O)c1ccc(N2N=C(C)/C(=C3\C(=O)Nc4ccccc43)C2=O)cc1 [compound 45, 3-[1-(4-acetyl-phenyl)-3-methyl-5-oxo-1,5-dihydro-pyrazol-4-ylidene]-1,3-dihydro-indol-2-one]",19.22
4,COc1ccc(-c2csc(SC3C(=O)N(c4ccccc4)N=C3C)n2)cc1 (stereo not shown) [compound 19],40.19
5,CC1=NN(c2ccccc2)C(=O)/C1=C/c1ccc(Cl)cc1 [compound 67],9.09
6,"CC1=NN(c2ccc(Cl)cc2)C(=O)/C1=C/c1cccc(O)c1 [compound 43, 2-(4-chloro-phenyl)-4-(3-hydroxy-benzylidene)-5-methyl-2,4-dihydropyrazol-3-one]",3.00
7,CCCC1=NN(c2ccccc2)C(=O)C1CC(=O)c1ccccc1 (stereo not shown) [compound 20],83.12
8,"CC1=NN(c2ccccc2Cl)C(=O)/C1=C/c1ccc(N(C)C)cc1 [compound 32, 2-(2-chloro-phenyl)-4-(4-dimethylamino-benzylidene)-5-methyl-2,4-dihydro-pyrazol-3-one]",8.7
9,"CC1=NN(c2ccccc2)C(=O)C1(N1CCOCC1)N1CCOCC1 [compound 26, 5-methyl-4,4-dimorpholine-4-yl-2-phenyl-2,4-dihydro-pyrazol-3-one]",50.68
10,"CC1=NN(c2ccccc2)C(=O)C1C(c1ccccc1)c1c(C)nn(-c2ccccc2)c1O (stereo not shown) [compound 9, 4-[(5-hydroxy-3-methyl-1-phenyl-1H-pyrazol-4-yl)-phenyl-methyl]-5-methyl-2-phenyl-2,4-dihydro-pyrazol-3-one]",7.52
11,"CC1=NN(c2cccc(F)c2)C(=O)/C1=C\c1ccc(N(C)C)cc1 [compound 35, 4-(4-dimethylamino-benzylidene)-2-(3-fluoro-phenyl)-5-methyl-2,4-dihydro-pyrazol-3-one]",76.31
12,CC1=NN(c2ccccc2Cl)C(=O)/C1=C/c1ccc(O)c(OCO)c1 [compound 31],15.57
13,"O=C1/C(=C\c2ccc(O)cc2)C(C(F)(F)F)=NN1c1ccccc1 [compound 53, 4-(4-hydroxy-benzylidene)-2-phenyl-5-trifluoromethyl-2,4-dihydro-pyrazol-3-one]",66.76

# Same assay, conditions: Table 13; incubated with BSA and arabinose instead of patient plasma
row,SMILES,Pentosidine Formation Ratio (%) at 5 Concentration [%]
1,"CC1=NN(c2ccccc2)C(=O)/C1=C/c1ccc(O)cc1 [compound 70, 4-(4-hydroxy-benzylidene)-5-methyl-2-phenyl-2,4-dihydro-pyrazol-3-one]",0.04
2,"CC1=NN(c2ccccc2)C(=O)/C1=C/c1ccc(OCc2ccccc2)cc1 [compound 72, 4-(4-benzyloxy-benzylidene)-5-methyl-2-phenyl-2,4-dihydropyrazol-3-one]",7.63

# System: pentosidine formation
# Assay: Inhibitory effects of phenylene derivatives (II) on AGEs (pentosidine) formation
# Assay type: biochemical
# Parameters: AGE Formation Inhibition Ratio (%): concentration or dose not given beside the values
# Details: same method used in Test Example 1
# Method: as §1
# as §2, with “protein. […]” for “protein.”
SMILES,AGE Formation Inhibition Ratio (%),Pentosidine Formation Ratio (%)
CCCCS(=O)(=O)N(Cc1ccc(C2SC(=O)NC2=O)cc1)c1cccc(C(=O)O)c1 (stereo not shown) [(II-11)],89,11
O=C1NC(=O)C(c2ccc(CN(c3cccc(C(=O)O)c3)S(=O)(=O)c3ccc4ccccc4c3)cc2)S1 (stereo not shown) [(II-25)],99,1
O=C1NC(=O)C(c2ccc(CN(Cc3ccc(-c4ccccc4)cc3)c3cccc(C(=O)O)c3)cc2)S1 (stereo not shown) [(II-68)],80,20
O=C1NC(=O)C(c2ccc(CN(c3cccc(C(=O)O)c3)S(=O)(=O)c3ccc(-c4ccccc4)cc3)cc2)S1 (stereo not shown) [(II-24)],91,9
CCCCS(=O)(=O)N(Cc1ccc(C2SC(=O)NC2=O)cc1)c1ccccc1 (stereo not shown) [(II-9)],80,20
CS(=O)(=O)N(Cc1ccc(C2SC(=O)NC2=O)cc1)c1cccc(C(=O)O)c1 (stereo not shown) [(II-10)],86,14
Cc1oc(-c2ccccc2)nc1CC(=O)N(Cc1ccc(C2SC(=O)NC2=O)cc1)c1cccc(C(=O)O)c1 (stereo not shown) [(II-33)],82,18
CC1CCc2ccc(C(=O)O)cc2N1Cc1ccc(C2SC(=O)NC2=O)cc1 (stereo not shown) [(II-7)],87,13
O=C(O)c1cccc(N(CCc2ccccc2)Cc2ccc(-c3ccccc3-c3nnn[nH]3)cc2)c1 [(II-32)],81,19
Cc1nc(-c2ccc(S(=O)(=O)N(Cc3ccc(C4SC(=O)NC4=O)cc3)c3cccc(C(=O)O)c3)cc2)cs1 (stereo not shown) [(II-63)],80,20
O=C1NC(=O)C(c2ccc(CN(C(=O)C3CCCCC3)c3cccc(C(=O)O)c3)cc2)S1 (stereo not shown) [(II-18)],85,15
O=C(O)c1cccc(N(Cc2ccc(-c3ccccc3-c3nnn[nH]3)cc2)C(=O)CCc2ccccc2)c1 [(II-1)],80,20
CCCc1cc2ccc(C(=O)O)cc2n(Cc2ccc(C3SC(=O)NC3=O)cc2)c1=O (stereo not shown) [(II-17)],84,16
Cc1ccc(S(=O)(=O)N(Cc2ccc(C3SC(=O)NC3=O)cc2)c2cccc(C(=O)O)c2)cc1 (stereo not shown) [(II-23)],90,10
O=C(O)c1cccc(N(CC(=O)c2ccccc2)Cc2ccc(-c3ccccc3-c3nnn[nH]3)cc2)c1 [(II-42)],93,7
CCCCCN(Cc1ccc(C2SC(=O)NC2=O)cc1)c1cccc(C(=O)O)c1 (stereo not shown) [(II-6)],80,20
O=C1NC(=O)C(c2ccc(Cn3c(-c4ccccn4)nc4ccccc43)cc2)S1 (stereo not shown) [(II-15)],80,20
O=C1NC(=O)C(c2ccc(CN(C(=O)CCc3ccccc3)c3cccc(C(=O)O)c3)cc2)S1 (stereo not shown) [(II-20)],92,8
O=C1NC(=O)C(c2ccc(CN3C(=O)C4(CC4)Cc4ccc(C(=O)O)cc43)cc2)S1 (stereo not shown) [(II-30)],87,13
O=C1NC(=O)C(c2ccc(CN(C(=O)c3ccc(-c4ccccc4)cc3)c3cccc(C(=O)O)c3)cc2)S1 (stereo not shown) [(II-21)],98,2
O=C1NC(=O)C(c2ccc(Cn3ccnc3-c3ccccc3)cc2)S1 (stereo not shown) [(II-16)],85,15
O=C1NC(=O)C(c2ccc(CN(c3cccc(C(=O)O)c3)S(=O)(=O)c3ccccc3)cc2)S1 (stereo not shown) [(II-22)],85,15
CC1(C)Cc2ccc(C(=O)O)cc2N(Cc2ccc(C3SC(=O)NC3=O)cc2)C1=O (stereo not shown) [(II-29)],86,14
O=C1NC(=O)C(c2ccc(CN(C(=O)c3cccnc3)c3cccc(C(=O)O)c3)cc2)S1 (stereo not shown) [(II-19)],80,20
CS(=O)(=O)N(Cc1ccc(C2SC(=O)NC2=O)cc1)c1ccccc1 (stereo not shown) [(II-8)],81,19
CCCC1CCc2ccc(C(=O)O)cc2N(Cc2ccc(C3SC(=O)NC3=O)cc2)C1=O (stereo not shown) [(II-28)],84,16
